US10010400B2, “Devices and methods for local delivery of drug to upper urinary tract” (TARIS Biomedical LLC, priority 2015, dated 2018)

Assay: in vitro osmotic pumping of methylene blue up a capillary tube from a closed drug reservoir
Assay type: physicochemical
Conditions: reservoir with urea and lactose tablets in 125 mL degassed, deionized water; 36 cm capillary tube extended vertically
Source text: Another experimental system was designed to simulate a ureteral drug delivery device having a flexible elongate body with a bladder end portion and a kidney end portion, a drug reservoir located at the bladder end portion which contains a drug and has a semi-permeable wall, and a drug lumen (capillary tube) having a first opening into the drug reservoir and a second end opening at the kidney end portion of the flexible elongate body. The ureteral drug delivery device used in the experiments was configured to permit water to enter the drug reservoir through the semi-permeable wall to create an osmotic pressure to pump the drug from the drug reservoir through the capillary tube and out of the device through the second end opening.
In this experiment, a drug reservoir similar to that illustrated in FIG. 11A was prepared. In particular, a spacer end piece was adhered using silicone adhesive within a tubular silicone housing. 10.5 cm of urea tablets, 4 cm of lactose tablets, and one tablet containing methylene blue were loaded into the tubular housing. A capillary tube (36 cm) having two spacers disposed in a spaced relationship at one end was slid into the tubular housing of the drug reservoir, adjacent the methylene blue tablet. […]

Structure (SMILES): CN(C)c1ccc2nc3ccc(=[N+](C)C)cc-3sc2c1 [methylene blue]
- movement of the dye up the capillary tube: observed
